# Results from patent US20030105595A1, “Chi square tests for gene expression” (priority 2001, published 2003).
# Assays:
# Assay in all cases: multi-sample expression analysis, band intensity
# Assay type in all cases: in vivo
# Conditions in all cases: Pooled
# [1] = system: band b1i0_60.7
# From the text: (§1) To practice the invention, one skilled in the art obtains a source of biological samples, as well as expression information about the biological samples, i.e., expression information relative to one or more genes or polypeptides encoded therein. Data is collected for a particular phenotype appearing within a given population under study, whereby expression of that phenotype is to be determined within the biological sample under study. The phenotype is correlated to a specific genotype, which is then represented as a band with a given intentity, thus indicative of gene expression levels, and is then compared to control samples. Alternatively, the response of a gene to dosage with one or more drugs is determined by band intensity. The standard deviation from the mean (StdDev) is calculated for the control samples, and is fit to functional form in the following equation: […]
# (§2) A multi-sample expression analysis was run using the program described in Example 1. For each drug run, only runs for genes producing bands with a p-value<10^−5 in at least 2 of the following 3 comparisons were selected: low dose versus vehicle, high dose versus vehicle and low dose versus high dose. […] Since clusters found using all 13K bands included some of the best 2K bands, it was concluded that no essential signal was lost (see FIGS. 3 and 4). […] A comparison using the same analytic tests on only the best 2K bands. It can be seen that the Chi Square metric provides a better distinction between low and high doses than the correlation metric, which is not able to distinguish between the low dose and the high dose (see FIG. 6). The low-dose/high dose statistical variation is more pronounced when only the best 2K bands are selected.
# [2] = system: band b1i0_54.5
# From the text: as §1, §2
# [3] = system: band b1i0_62.5
# From the text: as §1, §2
# [4] = system: band b1i0_53.0
# From the text: as §1, §2
# [5] = system: band b1i0_51.7
# From the text: as §1, §2
# [6] = system: band b1i0_69.4
# From the text: as §1, §2
# [7] = system: band b1i0_63.7
# From the text: as §1, §2
# [8] = system: band b1i0_57.4
# From the text: as §1, §2
structure (smiles),measurement,setting,value
S=C=Nc1cccc2ccccc12 [ANIT],band intensity b1i0_60.7,"[1]; High dose, 1d",74.32
same,band intensity b1i0_60.7,"[1]; High dose, 3d",74.89
same,band intensity b1i0_60.7,"[1]; High dose, 7d",72.63
same,band intensity b1i0_60.7,"[1]; Low dose, 1d",87.08
same,band intensity b1i0_60.7,"[1]; Low dose, 3d",67.38
same,band intensity b1i0_60.7,"[1]; Low dose, 7d",75.42
same,band intensity b1i0_60.7,"[1]; Low dose, 14d",141.7
same,band intensity b1i0_54.5,"[2]; High dose, 1d",102.2
same,band intensity b1i0_54.5,"[2]; High dose, 3d",114.2
same,band intensity b1i0_54.5,"[2]; High dose, 7d",95.67
same,band intensity b1i0_54.5,"[2]; Low dose, 1d",105.3
same,band intensity b1i0_54.5,"[2]; Low dose, 3d",111.3
same,band intensity b1i0_54.5,"[2]; Low dose, 7d",88.17
same,band intensity b1i0_54.5,"[2]; Low dose, 14d",33.49
same,band intensity b1i0_62.5,"[3]; High dose, 1d",49.33
same,band intensity b1i0_62.5,"[3]; High dose, 3d",93.56
same,band intensity b1i0_62.5,"[3]; High dose, 7d",81.4
same,band intensity b1i0_62.5,"[3]; Low dose, 1d",68.44
same,band intensity b1i0_62.5,"[3]; Low dose, 3d",104.9
same,band intensity b1i0_62.5,"[3]; Low dose, 7d",91.61
same,band intensity b1i0_62.5,"[3]; Low dose, 14d",249.3
same,band intensity b1i0_53.0,"[4]; High dose, 1d",99.5
same,band intensity b1i0_53.0,"[4]; High dose, 3d",84.16
same,band intensity b1i0_53.0,"[4]; High dose, 7d",106.3
same,band intensity b1i0_53.0,"[4]; Low dose, 1d",121.8
same,band intensity b1i0_53.0,"[4]; Low dose, 3d",45.02
same,band intensity b1i0_53.0,"[4]; Low dose, 7d",108.1
same,band intensity b1i0_53.0,"[4]; Low dose, 14d",54.67
same,band intensity b1i0_51.7,"[5]; High dose, 1d",23.54
same,band intensity b1i0_51.7,"[5]; High dose, 3d",30.1
same,band intensity b1i0_51.7,"[5]; High dose, 7d",21.57
same,band intensity b1i0_51.7,"[5]; Low dose, 1d",30.7
same,band intensity b1i0_51.7,"[5]; Low dose, 3d",22.37
same,band intensity b1i0_51.7,"[5]; Low dose, 7d",20.67
same,band intensity b1i0_51.7,"[5]; Low dose, 14d",82
same,band intensity b1i0_69.4,"[6]; High dose, 1d",208.6
same,band intensity b1i0_69.4,"[6]; High dose, 3d",284.1
same,band intensity b1i0_69.4,"[6]; High dose, 7d",271.2
same,band intensity b1i0_69.4,"[6]; Low dose, 1d",276.3
same,band intensity b1i0_69.4,"[6]; Low dose, 3d",370.5
same,band intensity b1i0_69.4,"[6]; Low dose, 7d",305.4
same,band intensity b1i0_69.4,"[6]; Low dose, 14d",748.9
same,band intensity b1i0_63.7,"[7]; High dose, 1d",50.09
same,band intensity b1i0_63.7,"[7]; High dose, 3d",0.01399
same,band intensity b1i0_63.7,"[7]; High dose, 7d",147.9
same,band intensity b1i0_63.7,"[7]; Low dose, 1d",170.6
same,band intensity b1i0_63.7,"[7]; Low dose, 3d",7.245
same,band intensity b1i0_63.7,"[7]; Low dose, 7d",299.4
same,band intensity b1i0_63.7,"[7]; Low dose, 14d",9.845
same,band intensity b1i0_57.4,"[8]; High dose, 1d",1272
same,band intensity b1i0_57.4,"[8]; High dose, 3d",712.4
same,band intensity b1i0_57.4,"[8]; High dose, 7d",685.8
same,band intensity b1i0_57.4,"[8]; Low dose, 1d",1209.0048
same,band intensity b1i0_57.4,"[8]; Low dose, 3d",1266
same,band intensity b1i0_57.4,"[8]; Low dose, 7d",1303
same,band intensity b1i0_57.4,"[8]; Low dose, 14d",810.7
Cc1cc(C(C)(C)C)c(O)c(C(C)(C)C)c1 [BHT],band intensity b1i0_60.7,"[1]; High dose, 1d",71.52
same,band intensity b1i0_60.7,"[1]; High dose, 3d",70.09
same,band intensity b1i0_60.7,"[1]; High dose, 7d",62.31
same,band intensity b1i0_60.7,"[1]; High dose, 14d",68.41
same,band intensity b1i0_60.7,"[1]; Low dose, 1d",72.36
same,band intensity b1i0_60.7,"[1]; Low dose, 3d",69.13
same,band intensity b1i0_60.7,"[1]; Low dose, 7d",79.01
same,band intensity b1i0_60.7,"[1]; Low dose, 14d",90.11
same,band intensity b1i0_54.5,"[2]; High dose, 1d",82.82
same,band intensity b1i0_54.5,"[2]; High dose, 3d",96.92
same,band intensity b1i0_54.5,"[2]; High dose, 7d",81.74
same,band intensity b1i0_54.5,"[2]; High dose, 14d",93.42
same,band intensity b1i0_54.5,"[2]; Low dose, 1d",93.97
same,band intensity b1i0_54.5,"[2]; Low dose, 3d",101.5
same,band intensity b1i0_54.5,"[2]; Low dose, 7d",92.42
same,band intensity b1i0_54.5,"[2]; Low dose, 14d",91.73
same,band intensity b1i0_62.5,"[3]; High dose, 1d",81.06
same,band intensity b1i0_62.5,"[3]; High dose, 3d",56.24
same,band intensity b1i0_62.5,"[3]; High dose, 7d",81.59
same,band intensity b1i0_62.5,"[3]; High dose, 14d",57.74
same,band intensity b1i0_62.5,"[3]; Low dose, 1d",74.66
same,band intensity b1i0_62.5,"[3]; Low dose, 3d",70.37
same,band intensity b1i0_62.5,"[3]; Low dose, 7d",62.54
same,band intensity b1i0_62.5,"[3]; Low dose, 14d",63.7
same,band intensity b1i0_53.0,"[4]; High dose, 1d",104.3
same,band intensity b1i0_53.0,"[4]; High dose, 3d",101.7
same,band intensity b1i0_53.0,"[4]; High dose, 7d",104.1
same,band intensity b1i0_53.0,"[4]; High dose, 14d",82.87
same,band intensity b1i0_53.0,"[4]; Low dose, 1d",108.8
same,band intensity b1i0_53.0,"[4]; Low dose, 3d",87.18
same,band intensity b1i0_53.0,"[4]; Low dose, 7d",104.5
same,band intensity b1i0_53.0,"[4]; Low dose, 14d",96.38
same,band intensity b1i0_51.7,"[5]; High dose, 1d",24.21
same,band intensity b1i0_51.7,"[5]; High dose, 3d",25.0702
same,band intensity b1i0_51.7,"[5]; High dose, 7d",17.72
same,band intensity b1i0_51.7,"[5]; High dose, 14d",26.78
same,band intensity b1i0_51.7,"[5]; Low dose, 1d",18.78
same,band intensity b1i0_51.7,"[5]; Low dose, 3d",18.02
same,band intensity b1i0_51.7,"[5]; Low dose, 7d",12.13
same,band intensity b1i0_51.7,"[5]; Low dose, 14d",18.31
same,band intensity b1i0_69.4,"[6]; High dose, 1d",241.7
same,band intensity b1i0_69.4,"[6]; High dose, 3d",251.2
same,band intensity b1i0_69.4,"[6]; High dose, 7d",255.9
same,band intensity b1i0_69.4,"[6]; High dose, 14d",268.8
same,band intensity b1i0_69.4,"[6]; Low dose, 1d",272.5
same,band intensity b1i0_69.4,"[6]; Low dose, 3d",190.6
same,band intensity b1i0_69.4,"[6]; Low dose, 7d",282.9
same,band intensity b1i0_69.4,"[6]; Low dose, 14d",286.5
same,band intensity b1i0_63.7,"[7]; High dose, 1d",240.7
same,band intensity b1i0_63.7,"[7]; High dose, 3d",120.1
same,band intensity b1i0_63.7,"[7]; High dose, 7d",313.4
same,band intensity b1i0_63.7,"[7]; High dose, 14d",41.88
same,band intensity b1i0_63.7,"[7]; Low dose, 1d",152.6
same,band intensity b1i0_63.7,"[7]; Low dose, 3d",171.4
same,band intensity b1i0_63.7,"[7]; Low dose, 7d",132.3
same,band intensity b1i0_63.7,"[7]; Low dose, 14d",161.6
same,band intensity b1i0_57.4,"[8]; High dose, 1d",1177
same,band intensity b1i0_57.4,"[8]; High dose, 3d",1235
same,band intensity b1i0_57.4,"[8]; High dose, 7d",990.2
same,band intensity b1i0_57.4,"[8]; High dose, 14d",1049
same,band intensity b1i0_57.4,"[8]; Low dose, 1d",1182
same,band intensity b1i0_57.4,"[8]; Low dose, 3d",1224
same,band intensity b1i0_57.4,"[8]; Low dose, 7d",1156
same,band intensity b1i0_57.4,"[8]; Low dose, 14d",1229
